{"source": "paper PMC9671962", "about": "(Communications Biology, 2022)", "key": {"NB-EBC1x tumor": {"system": "NB-EBC1x tumor", "test": "Biodistribution, autoradiography and tumor dosimetry in NB-EBC1x tumor-bearing mice", "type": "in vivo, female SCID CB17 mice", "details": "for %Injected Dose/gram, tumor: NB-EBC1 tumor, single mouse", "method": "At various time points mice were euthanized and tissues were harvested, weighed, and assayed for radioactivity by gamma counter. Decay corrected data presented as percent injected dose per gram of tissue (%ID/g). Human dosimetry was calculated using OLINDA/EXM software by fitting time activity curves for biodistribution data. Tissue autoradiography was performed by freezing excised tumors at 1 h postinjection of each respective treatment. One tumor was collected for each treatment group. Tumors were cryosectioned (Leica Cryotome) at a thickness of 20 µm. Each section was collected with a 200 µm gap and a total of three sections were collected for each tumor. Sections were then exposed to a phosphorfilm for 60 h and films were read on a Cyclone Plus phosphorimager (Perkin Elmer). Experimental conditions have been included in the Supplementary Methods.\nAnimal studies were performed in female mice due to the lack of sex-related differences for [^211At]PTT tolerability from initial dose response studies performed in female and male mice. Female mice were chosen due to their underlying behavior towards other study subjects that reduced nonstudy-related causes for decreased wellness. Pre-clinical efficacy studies were performed through “single mouse testing” to more closely recapitulate a clinical trial. […] Number size for treatment groups was determined by model tumor growth reproducibility, which was previously shown to have less than 5% normal variation with at least two animals. Statistical tests for tumor response and event-free survival (EFS) were performed as a grouped analysis that included all tumor models treated at each respective dose level (n = 2 per model per dose level). Statistical differences between treatment groups for tumor response was performed by paired-model T-test that compared reduction in tumor volume for the 36 MBq/kg dose level vs. 24 MBq/kg or 12 MBq/kg. Event free survival was measured by area over the curve method to quantify time to event, which was set as tumor growth exceeding 2 cm[3],[19]. Differences in EFS were tested across all treated models for each respective dose level, and against untreated controls, by paired-model ANOVA analysis. Associations of drug target expression and response were performed by linear regression analysis of EFS and PARP1 mRNA expression. Genetic signatures were visually presented as a function of EFS and no statistical tests were applied. Blood and marrow toxicity studies were performed with n = 5 sample sizes and powered to detect >20% differences between untreated controls and treated animals. Results were tested for significance by one-way ANOVA comparison from untreated controls. Marrow colony formation assays were performed in replicates of 2 for each mouse subject, dependent on marrow isolation, and all replicates are included in final analyses. Statistical analysis was performed by ordinary one-way ANOVA comparison between the mean of control and test groups. Biodistribution studies were performed with n = 3 mice per time-point. Human dosimetry was calculated using OLINDA/EXM v1.1 software by fitting time activity curves for biodistribution data in a healthy mouse model. Tumor dosimetry was calculated by OLINDA/EXM v1.1 by fitting time activity curves for NB-EBC1 tumors from biodistribution data. All statistical analyses were performed in GraphPad Prism version 9.3.1 unless indicated otherwise."}, "COG-N-519x": {"system": "COG-N-519x", "test": "Pre-clinical efficacy study, COG-N-519x PDX", "type": "in vivo", "details": "single mouse", "method": "(§1) Patient demographics and genetic characteristics are listed in (Supplementary Tables 1, 2)[17]. The maximum tolerated dose (MTD) was determined to be 36 MBq/kg administered by intra-peritoneal injection twice weekly for a total of 4 dose fractions and this fractionated regimen was used in all studies (Supplementary Fig. 1)[18],[19]. […] Nine of 11 PDX models were MYCN amplified (Fig. 1b), which is a hallmark of high-risk neuroblastoma. Tumor response was measured as the maximum percent decrease in tumor volume after treatment and event-free survival (EFS) was measured by the area over the curve method with tumor events pre-defined by tumor growth exceeding 2 cm[3],[18].\n(§2) The use of 2 mice per arm was based on the previously reported statistical analysis. PDX tumors were implanted into the right flank of 5 to 6-weeks old female mice weighing about 20–25 grams. […] Two additional dose levels of 12, and 24 MBq/kg/fraction were assessed in a subset of models and were administered as stated above. In two models treated at the 24 MBq/kg/fraction dose level we re-challenged tumor response at the time of tumor progression with an additional 4 dose fractions at 24 MBq/kg/fraction given twice weekly. Doses were prepared in 500 µL total volume. An equal volume of saline was used for the vehicle group. Tumors were measured using a digital caliper at the initiation of the study and two times per week during the treatment period. Tumor volumes were calculated as volume = ([…]∗0.5236)/1000. Weights were obtained twice weekly and mice were monitored daily for signs of toxicity. […] Tumor response was assessed by best response defined as greatest reduction in tumor volume following the last dose and is presented as percent change in tumor volume. Event-free survival was determined by area over the curve method that calculates the time to tumor event, which was defined as tumors reaching or exceeding a size ≥ 2 cm^3.\n(§3) Animal studies were performed in female mice due to the lack of sex-related differences for [^211At]PTT tolerability from initial dose response studies performed in female and male mice. Female mice were chosen due to their underlying behavior towards other study subjects that reduced nonstudy-related causes for decreased wellness. Pre-clinical efficacy studies were performed through “single mouse testing” to more closely recapitulate a clinical trial. […] Number size for treatment groups was determined by model tumor growth reproducibility, which was previously shown to have less than 5% normal variation with at least two animals. Statistical tests for tumor response and event-free survival (EFS) were performed as a grouped analysis that included all tumor models treated at each respective dose level (n = 2 per model per dose level). Statistical differences between treatment groups for tumor response was performed by paired-model T-test that compared reduction in tumor volume for the 36 MBq/kg dose level vs. 24 MBq/kg or 12 MBq/kg. Event free survival was measured by area over the curve method to quantify time to event, which was set as tumor growth exceeding 2 cm[3],[19]. Differences in EFS were tested across all treated models for each respective dose level, and against untreated controls, by paired-model ANOVA analysis. Associations of drug target expression and response were performed by linear regression analysis of EFS and PARP1 mRNA expression. Genetic signatures were visually presented as a function of EFS and no statistical tests were applied. Blood and marrow toxicity studies were performed with n = 5 sample sizes and powered to detect >20% differences between untreated controls and treated animals. Results were tested for significance by one-way ANOVA comparison from untreated controls. Marrow colony formation assays were performed in replicates of 2 for each mouse subject, dependent on marrow isolation, and all replicates are included in final analyses. […]"}, "COG-N-440x": {"system": "COG-N-440x", "test": "Pre-clinical efficacy study, COG-N-440x PDX", "type": "in vivo", "details": "single mouse", "method": "as §1, §2, §3"}, "[1]": {"details": "12 MBq/kg/fraction x 4 fractions"}, "[2]": {"details": "24 MBq/kg/fraction x 4 fractions"}, "[3]": {"details": "36 MBq/kg/fraction x 4 fractions"}}, "note": "Several values for one entry are separate records, joined by “and”; a condition that tells them apart may be missing. Equal entries are not always repeated.", "data": [{"smiles": "O=C1NCCn2c(-c3ccc([211At])cc3)nc3cccc1c32", "note": "[[^211At]PTT, Astatine-211-parthanatine]", "values": [{"measurement": "average tumor dose", "setting": "NB-EBC1x tumor; 1-year-old phantom, derived from NB-EBC1 tumor-bearing mouse model", "value": 0.060, "unit": "Gy per MBq/kg"}, {"measurement": "thyroid uptake with co-administration of potassium iodide", "setting": "NB-EBC1x tumor; 1 h", "value": "partially blocked"}, {"measurement": "Absorbed Dose, Tumor", "setting": "NB-EBC1x tumor; NB-EBC1 tumor-bearing CB57 SCID mice, three values", "value": "4.5716 cGy/MBq/kg and 5.9806 cGy/MBq/kg and 7.417 cGy/MBq/kg"}, {"measurement": "%Injected Dose/gram, tumor", "setting": "NB-EBC1x tumor; time point 0.5", "value": "2.4065 %ID/g and 3.551 %ID/g and 6.66 %ID/g"}, {"measurement": "%Injected Dose/gram, tumor", "setting": "NB-EBC1x tumor; time point 1", "value": "8.705 %ID/g and 13.3276 %ID/g and 24.86 %ID/g"}, {"measurement": "%Injected Dose/gram, tumor", "setting": "NB-EBC1x tumor; time point 6", "value": "7.986 %ID/g and 8.236 %ID/g and 8.192 %ID/g"}, {"measurement": "%Injected Dose/gram, tumor", "setting": "NB-EBC1x tumor; time point 24", "value": "0.008485 %ID/g and 1.144 %ID/g and 1.578 %ID/g"}, {"measurement": "tumor penetrance by ex-vivo autoradiography", "setting": "NB-EBC1x tumor; NB-EBC1 tumors, 1 h postinjection", "value": "high tumor penetrance"}, {"measurement": "tumor dosimetry (estimated)", "setting": "NB-EBC1x tumor; NB-EBC1x tumor-bearing mouse model", "value": 6, "unit": "cGy/MBq/kg"}, {"measurement": "cumulative absorbed dose to tumor", "setting": "NB-EBC1x tumor; NB-EBC1x, after 4 dose fractions of 36 MBq/kg", "value": 8.6, "unit": "Gy"}, {"measurement": "absorbed dose to tumor per dose fraction", "setting": "NB-EBC1x tumor; NB-EBC1x, per 36 MBq/kg dose", "value": 2.15, "unit": "Gy"}, {"measurement": "biological half-life in tumor", "setting": "NB-EBC1x tumor; seen in mice in the present study", "value": 5.1, "unit": "hr"}, {"measurement": "EFS by AOC method", "setting": "COG-N-519x; [1]", "value": "22.7688 days and 33.292 days"}, {"measurement": "Tumor response (% growth from study initiation at ~ 200 mm3)", "setting": "COG-N-519x; [1]", "value": "-46.1538% and -36.8421%"}, {"measurement": "EFS by AOC method", "setting": "COG-N-519x; [2]", "value": "28.2857 days and 42.6471 days"}, {"measurement": "Tumor response (% growth from study initiation at ~ 200 mm3)", "setting": "COG-N-519x; [2]", "value": "-83.871% and -100%"}, {"measurement": "EFS by AOC method", "setting": "COG-N-519x; [3]", "value": "82.4 Days and 100. 5 Days and 82.4108 Days and 100.511 Days"}, {"measurement": "Tumor response (% growth from study initiation at ~ 200 mm3)", "setting": "COG-N-519x; [3]", "value": -100, "unit": "%"}, {"measurement": "EFS by AOC method", "setting": "COG-N-440x; [1]", "value": "28.3679 days and 26.6227 days"}, {"measurement": "Tumor response (% growth from study initiation at ~ 200 mm3)", "setting": "COG-N-440x; [1]", "value": "-72.727% and -75.758%"}, {"measurement": "EFS by AOC method", "setting": "COG-N-440x; [2]", "value": "50.2168 days and 42.5399 days"}, {"measurement": "Tumor response (% growth from study initiation at ~ 200 mm3)", "setting": "COG-N-440x; [2]", "value": "-95.833% and -100%"}, {"measurement": "EFS by AOC method", "setting": "COG-N-440x; [3]", "value": "78.8444 days and 65.1924 days"}, {"measurement": "Tumor response (% growth from study initiation at ~ 200 mm3)", "setting": "COG-N-440x; [3]", "value": -100, "unit": "%"}]}]}
